Among the data in patent US12655150B2 (Cedilla Therapeutics, Inc., priority 2021, dated 2026) are GI50 values, retold here.

In general, GI50 refers to the concentration that inhibits growth by half. A low value points to greater sensitivity of the cells.

The test system of the experiment is NCI-H226. In words: 72H TEAD Proliferation Assay (Cell Titer Glo 2.0). Particulars: Homo sapiens, NCI-H226, 72 h, CTG 2.0, cell line not given (NCI-H226 responsive, NCI-H28 non-responsive). In kind it is cell-based. The procedure, abridged:
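Growth read-out is ATP luminescence (CellTiter-Glo 2.0) after 72 h compound exposure, corrected for no-CTG background and day-0 values, with GI50 from nonlinear regression. Sensitive line NCI-H226 (NF2-deficient); non-responsive NCI-H28 (NF2 wild type) distinguishes TEAD-driven from nonspecific growth inhibition.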
(In ATP-based viability assays light output follows the ATP content of the culture.)
Compound `CC(C)(C)c1ccc(-c2nc(/C=C/c3nnn[nH]3)cn3ccnc23)cc1` [I-155, (E)-6-(2-(1H-tetrazol-5-yl)vinyl)-8-(4-(tert-butyl)phenyl)imidazo[1,2-a]pyrazine] came in with a GI50 of over 10 µM.
The compound `COc1cc(-c2ccc(C(F)(F)F)cc2)nc2cc(C(=O)N3CCC[C@@H]3CO)ccc12` [I-371, (R)-(2-(hydroxymethyl)pyrrolidin-1-yl) (4-methoxy-2-(4-(trifluoromethyl)phenyl)quinolin-7-yl)methanone] yielded a GI50 of 5 to 10 µM.
As to `O=C(O)c1ccc2c(c1)nc(Oc1ccc(C(F)(F)F)cc1)c1cccn12` [I-23, 4-(4-(Trifluoromethyl)phenoxy) pyrrolo[1,2-a] quinoxaline-7-carboxylic acid], the GI50 was at most 1 µM.
As to `Cc1cc(-c2ccc(C(C)(C)C)cc2)nc2cc(C(=O)O)ccc12` [I-88, 2-(4-(tert-Butyl)phenyl)-4-methylquinoline-7-carboxylic acid], the concentration for 50% growth inhibition (GI50) lay in the range of 1 to 5 µM.
In turn, `C[C@@H](CO)NC(=O)c1ccc2c(OCC3CC3)cc(-c3ccc(C(F)(F)F)cc3)nc2c1` [I-374, (S)-4-(cyclopropylmethoxy)-N-(1-hydroxypropan-2-yl)-2-(4-(trifluoromethyl)phenyl)quinoline-7-carboxamide] showed a GI50 of 1 to 5 µM.
In turn, `C=CC(=O)Nc1ccc2cnc(-c3ccc(F)cc3)nc2c1` [I-82, N-(2-(4-Fluorophenyl)quinazolin-7-yl)acrylamide] displayed a GI50 of 1 to 5 µM.
Turning to `O=C(O)c1ccc2c(c1)nc(-c1ccc(C(F)(F)F)cc1F)c1cccn12` [I-50, 4-(2-fluoro-4-(trifluoromethyl)phenyl) pyrrolo[1,2-a] quinoxaline-7-carboxylic acid], the GI50 was at most 1 µM.
The value for `O=C(O)c1ccc2c(c1)nc(N1CCC3(CCCCCC3)C1)c1cccn12` [I-25, 4-(2-Azaspiro[4.6]undecan-2-yl)pyrrolo[1,2-a]quinoxaline-7-carboxylic acid] was 5 to 10 µM.
`C=CC(=O)NCc1cn2ccnc2c(-c2ccc(OC(F)(F)F)cc2)n1` [I-173, N-((8-(4-(trifluoromethoxy)phenyl)imidazo[1,2-a]pyrazin-6-yl)methyl)acrylamide] came in with a GI50 of at most 1 µM.
In turn, `CC(C)(C)c1ccc(-c2nc3cc(C(=O)NS(C)(=O)=O)ccc3n3cccc23)cc1` [I-123, 4-(4-(tert-Butyl)phenyl)-N-(methylsulfonyl)pyrrolo[1,2-a]quinoxaline-7-carboxamide] had a GI50 of over 10 µM.
Take `O=C(O)c1ccc2c(c1)nc(C1CCCCC1)c1nccn12` [I-68, 4-Cyclohexylimidazo[1,2-a]quinoxaline-7-carboxylic acid]: the GI50 was over 10 µM.
As for `O=C(O)c1ccc2c(c1)nc(C1CCOCC1)c1nccn12` [I-69, 4-(Tetrahydro-2H-pyran-4-yl)imidazo[1,2-a]quinoxaline-7-carboxylic acid], the GI50 was over 10 µM.
In turn, `COc1ccc(-c2nc3cc(C(=O)O)ccc3n3ccnc23)cc1` [I-64, 4-(4-Methoxyphenyl)imidazo[1,2-a]quinoxaline-7-carboxylic acid] returned a GI50 of over 10 µM.
With `Cc1cc(-c2ccc(OC(F)(F)F)cc2)nc2cc(C(=O)N[C@H](C)CO)ccc12` [I-255, (R)—N-(1-hydroxypropan-2-yl)-4-methyl-2-(4-(trifluoromethoxy)phenyl)quinoline-7-carboxamide], the GI50 was in the range of 1 to 5 µM.
On to `O=C(O)c1ccc2c(c1)nc(C1CC1)c1nccn12` [I-70, 4-Cyclopropylimidazo[1,2-a]quinoxaline-7-carboxylic acid], for which the GI50 is over 10 µM.
The compound `CC[C@H](CO)NC(=O)c1ccc2nc(C)c(-c3ccc(C(F)(F)F)cc3)nc2c1` [I-423, (R)—N-(1-hydroxybutan-2-yl)-2-methyl-3-(4-(trifluoromethyl)phenyl)quinoxaline-6-carboxamide] came in with a GI50 of 5 to 10 µM.
With `O=C(O)c1ccc2c(c1)nc(OCc1ccc(C(F)(F)F)cc1)c1cccn12` [I-130, 4-((4-(Trifluoromethyl)benzyl)oxy)pyrrolo[1,2-a]quinoxaline-7-carboxylic acid], the 50% growth inhibitory concentration (GI50) is over 10 µM.
In turn, `CC(C)(C)c1ccc(-c2nc3cc(C(=O)O)ccc3n3ccnc23)cc1` [I-58, 4-(4-(tert-Butyl)phenyl)imidazo[1,2-a]quinoxaline-7-carboxylic acid] showed a GI50 of 5 to 10 µM.
`COc1cc(-c2ccc(C(F)(F)F)cc2)nc2cc(C(=O)N[C@@H](C)c3ccccn3)ccc12` [I-327, (S)-4-methoxy-N-(1-(pyridin-2-yl)ethyl)-2-(4-(trifluoromethyl)phenyl)quinoline-7-carboxamide] gave a GI50 of at most 1 µM.
As to `COc1cc(-c2ccc(C(F)(F)F)cc2)nc2cc(C(=O)N[C@@H](C)c3ccccc3)ccc12` [I-351, (S)-4-methoxy-N-(1-phenylethyl)-2-(4-(trifluoromethyl)phenyl)quinoline-7-carboxamide], the GI50 was at most 1 µM.
The value for `C=CC(=O)NCc1cn2ccnc2c(N2CCC3(CC2)CC3)n1` [I-437, N-((8-(6-azaspiro[2.5]octan-6-yl)imidazo[1,2-a]pyrazin-6-yl)methyl)acrylamide] was 1 to 5 µM.
Consider `COc1cc(-c2ccc(C(F)(F)F)cc2)nc2cc(S(N)(=O)=O)ccc12` [I-416, 4-Methoxy-2-(4-(trifluoromethyl)phenyl)quinoline-7-sulfonamide], for which the GI50 was 1 to 5 µM.
The compound `CNC(=O)c1cn2ccnc2c(-c2ccc(C(C)(C)C)cc2)n1` [I-143, 8-(4-(tert-Butyl)phenyl)-N-methylimidazo[1,2-a]pyrazine-6-carboxamide] displayed a GI50 of over 10 µM.
As for `COc1cc(-c2ccc(C(F)(F)F)cc2F)nc2cc(C(=O)N[C@H](C)CO)ccc12` [I-337, (R)-2-(2-fluoro-4-(trifluoromethyl)phenyl)-N-(1-hydroxypropan-2-yl)-4-methoxyquinoline-7-carboxamide], the GI50 was at most 1 µM.
`CCNS(=O)(=O)c1ccc2c(OC)cc(-c3ccc(C(F)(F)F)cc3)nc2c1` [I-417, N-ethyl-4-methoxy-2-(4-(trifluoromethyl)phenyl)quinoline-7-sulfonamide]: the GI50 is at most 1 µM.
The value for `COc1cc(-c2ccc(C(F)(F)F)cc2)nc2cc(S(C)(=O)=O)ccc12` [I-415, 4-methoxy-7-(methylsulfonyl)-2-(4-(trifluoromethyl)phenyl)quinoline] was at most 1 µM; that for `C=CC(=O)NC(C)(CO)c1cn2ccnc2c(-c2ccc(C(F)(F)F)cc2)n1` (stereo not drawn) [I-251, N-(1-hydroxy-2-(8-(4-(trifluoromethyl)phenyl)imidazo[1,2-a]pyrazin-6-yl)propan-2-yl)acrylamide] was at most 1 µM.
`CN(C)CCNC(=O)c1ccc2c(c1)nc(-c1ccc(C(C)(C)C)cc1)c1cccn12` [I-188, 4-(4-(tert-butyl)phenyl)-N-(2-(dimethylamino)ethyl)pyrrolo[1,2-a]quinoxaline-7-carboxamide] returned a GI50 of 1 to 5 µM.
As for `C=CC(=O)NCc1cn2ccnc2c(Oc2ccc(C(F)(F)F)cc2)n1` [I-174, N-((8-(4-(trifluoromethyl)phenoxy)imidazo[1,2-a]pyrazin-6-yl)methyl)acrylamide], the GI50 is at most 1 µM.
On to `COc1cc(-c2ccc(C(F)(F)F)cc2)nc2cc(NS(C)(=O)=O)ccc12` [I-383, N-(4-methoxy-2-(4-(trifluoromethyl)phenyl)quinolin-7-yl)methanesulfonamide], for which the concentration for 50% growth inhibition (GI50) was in the range of 1 to 5 µM.
